Measured values taken from ChEMBL document CHEMBL1201862, “PubChem BioAssay data set” (2004).
pIC50: −log10 of the molar value. Calls of active or inactive are those of the source.

Tests used:
[1] = luciferase reporter signal suppression in cells – H4 neuroglioma cells, luminescence, dose response (AID 1990); assay type: functional, cell-based
[2] = Luminescence Cell-Based Dose Response HTS to Identify Inhibitors of 5'UTR Stem-Loop Driven Prion Protein mRNA Translation in H4 Neuroglioblastoma Cells. [Related pubchem assays: 1827 (Project Summary), 1813 (Primary HTS)]; assay type: functional
[3] = alpha-synuclein stem-loop luciferase translation blockers – H4 neuroglioma cells, luminescence, confirmation (AID 1988); assay type: functional, cell-based
[4] = target: T1, Mannose-6-phosphate isomerase (Homo sapiens, UniProt P34949); assay: MPI enzyme activity inhibition – biochemical, fluorescence intensity, coupled assay, primary screen (AID 1209)
T1 sequence (P34949 whole entry): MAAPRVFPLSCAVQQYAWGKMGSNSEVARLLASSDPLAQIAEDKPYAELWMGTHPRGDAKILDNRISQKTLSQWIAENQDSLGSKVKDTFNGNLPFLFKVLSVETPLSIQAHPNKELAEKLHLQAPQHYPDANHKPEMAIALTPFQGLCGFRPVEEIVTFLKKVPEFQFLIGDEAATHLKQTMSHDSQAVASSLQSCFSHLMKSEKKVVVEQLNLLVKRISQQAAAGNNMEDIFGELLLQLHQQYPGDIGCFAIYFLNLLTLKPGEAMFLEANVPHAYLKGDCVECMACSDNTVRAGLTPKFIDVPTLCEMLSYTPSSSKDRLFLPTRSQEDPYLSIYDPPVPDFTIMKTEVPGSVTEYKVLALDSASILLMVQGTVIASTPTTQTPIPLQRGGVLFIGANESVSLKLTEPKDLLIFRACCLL

[5] = Trypanosoma cruzi growth suppression in host cells – NIH3T3 host cells, beta-gal luminescence, confirmation (AID 2044); assay type: functional, cell-based;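 note: intracellular parasites grown in NIH/3T3 mouse fibroblasts as host cells; luminescent beta-galactosidase reporter signal from transgenic T. cruzi replicating inside host cells; inhibitors lower the luminescence signal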
[6] = NIH3T3 cell viability loss – ATP luminescence, mouse fibroblasts, counter-screen, dose response (AID 2010); assay type: functional, cell-based;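 note: cells exposed to compound for about 90 hours before reading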
[7] = target: T1, Mannose-6-phosphate isomerase; assay: MPI inhibition at elevated mannose 6-phosphate – biochemical, fluorescence intensity, high mannose 6-phosphate, primary screen (AID 1220)
[8] = THP-1 cell cytotoxicity, dose response, cytotoxicity control for non-replicating M. tuberculosis project (AID 489025); assay type: functional
[9] = HepG2 cell cytotoxicity, dose response, cytotoxicity control for non-replicating M. tuberculosis project (AID 489018); assay type: functional; conditions: Mycobacterium tuberculosis
[10] = Vero E6 cell cytotoxicity, dose response, cytotoxicity control for non-replicating M. tuberculosis project, secondary assay (AID 492998); assay type: functional, VeroE6; conditions: Vero C1008
[11] = target: Lysine-specific demethylase 4C (Homo sapiens, UniProt Q9H3R0); assay: inhibition of JMJD2C H3K9me3 demethylation – biochemical, DELFIA europium, cherry-picked samples, dose response (AID 488835); assay type: functional
cells = assay type: functional
INS1 = assay: INS-1E survival protection against cytokine death – cell-based, luminescence, retest, dose response (AID 449756); assay type: functional; conditions: Rattus norvegicus;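 note: cell death triggered by IL-1 beta plus TNF-alpha plus IFN-gamma mixture; protective hits raise ATP signal compared with cytokine alone wells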
Protein Wnt-3a = Protein Wnt-3a (Mus musculus, UniProt P27467); assay: antagonism of Wnt3a pathway luciferase reporter – Wnt-LIGHT cells, luminescence, selectivity assay for Gli-SUFU antagonist project, dose response (AID 651570); assay type: functional; conditions: read-out: IC50_Mean;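 note: Wnt-LIGHT reporter cells stimulated with conditioned medium from Wnt3a-producing cells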
Mu-type opioid receptor [12] = target: T2, Mu-type opioid receptor (Homo sapiens, UniProt P35372); assay: SAR Analysis of Antagonists of the MOR Receptor using an Image-Based Assay - Set 3. [Related pubchem assays (depositor defined):AID1777, AID1785, AID1786, AID1966, AID2133, AID2136, AID2284, AID2285, AID2420]; assay type: functional
[13] = target: T3, Delta-type opioid receptor (Homo sapiens, UniProt P41143); assay: SAR Analysis of Antagonists of the DOR Receptor using an Image-Based Assay - Set 3. [Related pubchem assays (depositor defined):AID1777, AID1785]; assay type: functional
[14] = target: T4, Kappa-type opioid receptor (Homo sapiens, UniProt P41145); assay: SAR analysis of small molecule antagonists of the kappa opioid receptor via a luminescent beta-arrestin assay - Set 3. [Related pubchem assays (depositor defined):AID1777, AID1778, AID1785, AID1786, AID1966, AID2133, AID2136, AID2285, AID2495]; assay type: functional
[15] = target: T4, Kappa-type opioid receptor; assay: SAR analysis of Antagonists of the Kappa Opioid Receptor (KOR) using an Image-Based Assay - Set 3. [Related pubchem assays (depositor defined):AID1777, AID1785]; assay type: functional
[16] = tested on: Streptococcus sp. 'group A'; assay: Streptococcus pyogenes SK(-)GAS viability under kanamycin – luminescence, BacTiterGlo, confirmation, counter-screen for streptokinase expression inhibitor project, dose response (AID 1900); assay type: functional, organism-based
Streptokinase A = target: T5, Streptokinase A (Streptococcus pyogenes serotype M1, UniProt P10520); assay: viability-normalized secreted streptokinase activity reduction – plasminogen activation absorbance, OD405, dose response (AID 1914); assay type: functional, Streptococcus pyogenes M1 GAS;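 note: secreted streptokinase activity via plasminogen activation per viability signal from cell pellet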
T5 sequence (P10520 whole entry): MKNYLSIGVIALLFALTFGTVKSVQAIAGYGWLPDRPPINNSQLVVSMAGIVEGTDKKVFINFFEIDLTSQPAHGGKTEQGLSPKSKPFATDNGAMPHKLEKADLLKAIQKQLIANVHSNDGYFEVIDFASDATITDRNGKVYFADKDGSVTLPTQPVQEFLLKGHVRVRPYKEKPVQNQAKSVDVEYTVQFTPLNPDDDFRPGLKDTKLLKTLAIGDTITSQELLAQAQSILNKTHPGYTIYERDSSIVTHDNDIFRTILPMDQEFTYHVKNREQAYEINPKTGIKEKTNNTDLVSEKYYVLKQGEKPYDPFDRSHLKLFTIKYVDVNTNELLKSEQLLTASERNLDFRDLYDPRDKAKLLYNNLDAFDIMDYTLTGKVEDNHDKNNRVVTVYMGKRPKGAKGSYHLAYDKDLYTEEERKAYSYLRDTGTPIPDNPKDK

[17] = target: T4, Kappa-type opioid receptor; assay type: functional
Beta-galactosidase = Beta-galactosidase (Escherichia coli, UniProt Q8VNN2); assay type: functional
[18] = target: T4, Kappa-type opioid receptor; assay type: functional; remark: listed apart in the source
Streptococcus = assay: GAS UMAA2166 growth inhibition – luminescence, BacTiterGlo, counter-screen for streptokinase expression inhibitor project, dose response (AID 1915); assay type: functional, organism-based;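 note: potency for reduction of bacterial viability or growth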
Mu-type opioid receptor [19] = target: T2, Mu-type opioid receptor; assay: mu opioid receptor activators, image-based, SAR follow-up (AID 2352); assay type: functional
[20] = target: T3, Delta-type opioid receptor; assay: DOR agonists, SAR follow-up, image-based (AID 2370); assay type: functional
[21] = target: T4, Kappa-type opioid receptor; assay: kappa opioid receptor blockers, image-based, SAR follow-up (AID 2348); assay type: functional
Mu-type opioid receptor [22] = target: T2, Mu-type opioid receptor; assay: mu opioid receptor blockers – image-based, SAR follow-up (AID 2420); assay type: functional;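 note: compounds added before stimulation of receptor with agonist DAMGO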
[23] = target: T4, Kappa-type opioid receptor; assay: kappa opioid receptor activation potency – imaging, image-based, SAR follow-up (AID 2359); assay type: functional
[24] = target: T6, Tyrosine-protein phosphatase non-receptor type 7 (Homo sapiens, UniProt P35236); assay: SAR analysis of chemical inhibitors of HePTP using a Fluorescent assay - Set 2. [Related pubchem assays (depositor defined):AID1059, AID1077, AID1661, AID2085, AID521]; assay type: functional
T6 sequence (P35236 whole entry): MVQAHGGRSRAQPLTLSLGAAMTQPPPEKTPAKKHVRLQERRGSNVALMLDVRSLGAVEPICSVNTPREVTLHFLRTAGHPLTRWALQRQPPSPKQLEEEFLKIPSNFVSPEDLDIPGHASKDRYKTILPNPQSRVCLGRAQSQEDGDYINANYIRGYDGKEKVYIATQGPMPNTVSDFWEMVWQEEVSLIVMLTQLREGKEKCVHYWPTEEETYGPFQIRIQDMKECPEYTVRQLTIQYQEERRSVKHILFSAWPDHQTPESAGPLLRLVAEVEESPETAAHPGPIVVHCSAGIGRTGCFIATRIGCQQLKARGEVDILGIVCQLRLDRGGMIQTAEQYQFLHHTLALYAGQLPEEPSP

[25] = target: Dual specificity protein phosphatase 3 (Homo sapiens, UniProt P51452); assay: SAR VHR1 Fluorescent Assay for In Vitro dose response studies Set 2. [Related pubchem assays (depositor defined):AID1654, AID1661, AID1878]; assay type: functional
[26] = target: T3, Delta-type opioid receptor; assay: delta opioid receptor blockers – image-based, SAR follow-up (AID 2357); assay type: functional
[27] = target: T4, Kappa-type opioid receptor; assay: kappa opioid receptor blockers, cell-based, luminescence, beta-arrestin, SAR follow-up (AID 2285); assay type: functional

T3 sequence (P41143 whole entry): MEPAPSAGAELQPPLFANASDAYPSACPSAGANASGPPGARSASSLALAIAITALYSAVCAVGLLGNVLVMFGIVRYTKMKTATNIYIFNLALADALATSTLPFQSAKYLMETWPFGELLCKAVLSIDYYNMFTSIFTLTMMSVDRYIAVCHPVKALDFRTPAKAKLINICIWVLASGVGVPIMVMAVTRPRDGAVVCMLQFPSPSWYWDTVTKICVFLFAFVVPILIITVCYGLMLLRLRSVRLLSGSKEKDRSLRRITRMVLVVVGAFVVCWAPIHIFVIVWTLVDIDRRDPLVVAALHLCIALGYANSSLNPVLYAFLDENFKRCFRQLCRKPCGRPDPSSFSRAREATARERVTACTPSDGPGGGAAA
T2 sequence (P35372 whole entry): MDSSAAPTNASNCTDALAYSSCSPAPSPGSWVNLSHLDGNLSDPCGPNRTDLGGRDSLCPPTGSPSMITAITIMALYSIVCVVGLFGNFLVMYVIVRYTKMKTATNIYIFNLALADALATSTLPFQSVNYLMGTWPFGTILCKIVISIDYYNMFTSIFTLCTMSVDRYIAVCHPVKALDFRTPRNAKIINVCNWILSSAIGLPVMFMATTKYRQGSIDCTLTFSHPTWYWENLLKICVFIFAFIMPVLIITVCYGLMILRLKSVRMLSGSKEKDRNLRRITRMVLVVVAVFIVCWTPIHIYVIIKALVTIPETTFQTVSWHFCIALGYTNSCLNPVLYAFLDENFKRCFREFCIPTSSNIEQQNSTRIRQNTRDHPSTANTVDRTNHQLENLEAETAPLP
T4 sequence (P41145 whole entry): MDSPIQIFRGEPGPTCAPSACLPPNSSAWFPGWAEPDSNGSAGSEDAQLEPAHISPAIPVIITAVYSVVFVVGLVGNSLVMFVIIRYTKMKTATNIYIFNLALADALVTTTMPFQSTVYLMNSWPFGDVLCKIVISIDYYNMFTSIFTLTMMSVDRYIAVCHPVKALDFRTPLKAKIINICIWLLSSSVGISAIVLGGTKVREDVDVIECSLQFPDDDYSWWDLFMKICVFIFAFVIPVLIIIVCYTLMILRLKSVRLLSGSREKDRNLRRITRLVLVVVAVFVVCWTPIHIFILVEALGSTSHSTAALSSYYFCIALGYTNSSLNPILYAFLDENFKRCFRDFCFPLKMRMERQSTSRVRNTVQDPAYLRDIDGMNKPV
Sequence of Protein Wnt-3a (P27467 whole entry): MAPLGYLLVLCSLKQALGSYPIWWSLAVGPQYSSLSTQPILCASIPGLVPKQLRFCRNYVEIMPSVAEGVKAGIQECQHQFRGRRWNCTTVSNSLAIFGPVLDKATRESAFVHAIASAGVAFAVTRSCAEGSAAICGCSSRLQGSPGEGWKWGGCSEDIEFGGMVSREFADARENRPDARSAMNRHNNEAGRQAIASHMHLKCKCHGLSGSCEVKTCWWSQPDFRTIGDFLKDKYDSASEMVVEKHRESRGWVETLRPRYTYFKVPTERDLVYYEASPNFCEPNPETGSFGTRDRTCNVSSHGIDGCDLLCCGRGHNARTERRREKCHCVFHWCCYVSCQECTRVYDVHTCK
Sequence of Beta-galactosidase (Q8VNN2 whole entry): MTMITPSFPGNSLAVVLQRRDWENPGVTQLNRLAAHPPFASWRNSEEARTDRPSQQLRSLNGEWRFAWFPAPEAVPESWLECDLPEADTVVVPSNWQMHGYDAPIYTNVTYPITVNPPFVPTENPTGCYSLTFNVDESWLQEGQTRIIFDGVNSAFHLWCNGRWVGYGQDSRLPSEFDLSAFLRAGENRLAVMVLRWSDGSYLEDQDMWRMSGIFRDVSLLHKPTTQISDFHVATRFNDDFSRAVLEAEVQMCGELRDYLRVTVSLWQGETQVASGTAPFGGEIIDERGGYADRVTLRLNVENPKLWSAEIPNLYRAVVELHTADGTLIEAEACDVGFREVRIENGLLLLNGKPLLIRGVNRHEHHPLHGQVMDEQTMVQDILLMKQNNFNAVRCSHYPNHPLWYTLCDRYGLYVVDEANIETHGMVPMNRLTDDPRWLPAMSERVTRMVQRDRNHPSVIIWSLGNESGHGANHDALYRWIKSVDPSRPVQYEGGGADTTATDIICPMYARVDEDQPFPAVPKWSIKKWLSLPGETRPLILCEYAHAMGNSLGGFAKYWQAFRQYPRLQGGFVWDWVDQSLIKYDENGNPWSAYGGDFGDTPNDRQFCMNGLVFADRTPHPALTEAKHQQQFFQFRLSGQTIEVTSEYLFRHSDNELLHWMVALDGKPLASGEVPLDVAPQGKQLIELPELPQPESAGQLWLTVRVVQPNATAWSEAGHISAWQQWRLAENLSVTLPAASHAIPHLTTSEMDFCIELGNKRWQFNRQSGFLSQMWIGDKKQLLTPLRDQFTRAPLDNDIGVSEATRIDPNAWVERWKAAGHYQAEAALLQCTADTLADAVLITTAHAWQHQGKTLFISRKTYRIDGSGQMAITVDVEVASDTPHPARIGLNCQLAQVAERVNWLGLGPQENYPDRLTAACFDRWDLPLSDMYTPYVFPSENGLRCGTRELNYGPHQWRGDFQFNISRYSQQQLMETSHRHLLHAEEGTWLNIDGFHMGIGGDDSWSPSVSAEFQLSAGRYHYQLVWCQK
Sequence of Dual specificity protein phosphatase 3 (P51452 whole entry): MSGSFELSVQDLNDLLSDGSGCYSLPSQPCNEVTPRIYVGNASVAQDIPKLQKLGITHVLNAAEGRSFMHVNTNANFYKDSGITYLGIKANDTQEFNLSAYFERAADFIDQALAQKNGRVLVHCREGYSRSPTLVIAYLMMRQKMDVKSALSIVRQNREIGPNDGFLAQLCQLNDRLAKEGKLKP
Sequence of Lysine-specific demethylase 4C (Q9H3R0 whole entry): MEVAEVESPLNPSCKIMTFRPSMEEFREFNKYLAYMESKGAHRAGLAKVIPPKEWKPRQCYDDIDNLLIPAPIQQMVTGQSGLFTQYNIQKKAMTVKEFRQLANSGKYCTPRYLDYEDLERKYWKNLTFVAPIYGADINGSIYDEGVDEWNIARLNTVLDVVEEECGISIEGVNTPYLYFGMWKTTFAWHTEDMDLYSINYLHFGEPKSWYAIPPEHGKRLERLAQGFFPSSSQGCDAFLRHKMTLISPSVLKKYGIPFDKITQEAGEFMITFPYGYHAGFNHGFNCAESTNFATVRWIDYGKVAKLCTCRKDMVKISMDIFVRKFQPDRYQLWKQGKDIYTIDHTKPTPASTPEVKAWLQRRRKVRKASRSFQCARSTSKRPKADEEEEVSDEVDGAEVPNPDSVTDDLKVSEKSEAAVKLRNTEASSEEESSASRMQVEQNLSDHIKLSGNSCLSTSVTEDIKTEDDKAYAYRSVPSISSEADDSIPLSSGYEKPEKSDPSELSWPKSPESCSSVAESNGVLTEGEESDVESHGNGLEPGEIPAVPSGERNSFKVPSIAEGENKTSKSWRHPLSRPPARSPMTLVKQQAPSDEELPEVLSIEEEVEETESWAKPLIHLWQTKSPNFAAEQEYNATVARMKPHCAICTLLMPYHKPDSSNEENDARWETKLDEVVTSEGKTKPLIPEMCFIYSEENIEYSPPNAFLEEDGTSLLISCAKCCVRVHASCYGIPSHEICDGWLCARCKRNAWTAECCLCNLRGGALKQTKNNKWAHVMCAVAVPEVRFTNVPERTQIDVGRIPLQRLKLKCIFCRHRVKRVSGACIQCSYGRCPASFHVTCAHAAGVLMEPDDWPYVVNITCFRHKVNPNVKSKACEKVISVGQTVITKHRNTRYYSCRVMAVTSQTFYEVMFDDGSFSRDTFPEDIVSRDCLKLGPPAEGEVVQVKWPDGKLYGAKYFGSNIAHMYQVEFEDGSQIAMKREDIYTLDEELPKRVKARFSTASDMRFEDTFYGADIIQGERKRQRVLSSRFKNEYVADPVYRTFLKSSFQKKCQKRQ

Cc1cc(N/N=C/c2ccc(O)cc2O)nc(-n2nc(C)cc2C)n1
EC50 [1]: 10.9 µM (active) | EC50 [2]: 11.4 µM (active) | EC50 [3]: 11.2 µM (active) | IC50 [4]: > 50 µM (not active) | EC50 [5]: 2.05 µM (active) | EC50 [6]: > 30 µM (not active) | IC50 [7]: > 50 µM (not active) | CC50 [8]: 8.18 µM (active) | CC50 [9]: 11.4 µM (active) | CC50 [10]: 3.72 µM (active) | AC50 [11]: 2.7 µM (active) | IC50 (cells): 0.18 µM (active) | AC50 (INS1): 0.3 µM (active) | IC50 (Protein Wnt-3a): 41.3 µM (inactive)

Cc1ccc(CN(CCNC(=O)c2ccc(CNS(=O)(=O)c3ccc(C)cc3)cc2)C(C)C)cc1
IC50 (Mu-type opioid receptor [12]): > 32 µM (inactive) | IC50 [13]: > 32 µM (inactive) | IC50 [14]: 1.17 µM (active) | IC50 [15]: 0.246 µM (active)

O=C(NC(NC(=S)Nc1c(Cl)cccc1Cl)C(Cl)(Cl)Cl)OCc1ccccc1 (stereo not drawn)
EC50 [16]: 1.65 µM (active) | EC50 (Streptokinase A): 3.01 µM (active) | IC50 [17]: 3.48 µM (active) | EC50 (Beta-galactosidase): > 31.5 µM (inactive) | pIC50 [18]: 5.69 | EC50 (Streptococcus): 18 µM (active) | EC50 (Mu-type opioid receptor [19]): > 32 µM (inactive) | EC50 [20]: > 32 µM (inactive) | IC50 [21]: 0.74 µM (active) | IC50 (Mu-type opioid receptor [22]): 8.43 µM (active) | EC50 [23]: > 32 µM (inactive) | IC50 [24]: 63 µM (active) | IC50 [25]: 90 µM (active) | IC50 [26]: > 32 µM (inactive) | IC50 [27]: 1.15 µM (active)
